The target of assay [1] is human GLP-1 receptor (hGLP-1R) (Homo sapiens, UniProt P43220). As to the kind of experiment: cAMP production (HTRF) in CHO cells expressing hGLP-1R. It is filed as cell-based. Details: expressed in transfected cells. Particulars: for % Relative Potency Ratio: Table 6, % GLP-1R activity relative to GLP-1 / % GlucR activity relative to glucagon; for EC50: Table 6, peptides modified at position 17, cAMP in CHO hGLP-1R cells, geometric mean, read-out: hGLP-1R EC50. Put shortly:
(§1)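 Potency values represent EC50 from 4-parameter logistic curves of HTRF % Delta F signal. Receptor-expressing CHO cells (hGCGR 2×10^5 cells/mL, hGLP-1R 1×10^5 cells/mL) were exposed for 30 min at room temperature before two-step cAMP detection.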

Assay [2] has as its target human glucagon receptor (hGCGR) (Homo sapiens, UniProt P47871). Nature of the assay: cAMP production (HTRF) in CHO cells expressing hGCGR. It is filed as cell-based. Details: expressed in transfected cells. Particulars: Table 6, peptides modified at position 17; cAMP in CHO hGCGR cells; geometric mean; read-out: hGluc-R EC50. The method, boiled down: as §1
On the technique in general: Cyclic AMP is a second messenger, typically raised through Gs and lowered through Gi signalling.

Starred links: 1 amine or outer side, 2 acyl side, 3 side chain; linkers in the order of their positions; H or OH if unused. Non-standard residues stand in square brackets, D forms with d. Residues, ends and D or L forms follow the SMILES beside them. Groups on a side chain read outwards from the residue. *: point of attachment. γGlu = O=C(O)[C@H](CCC(=O)[*:2])N[*:1]; Stearoyl = CCCCCCCCCCCCCCCCCC(=O)*; Palmitoyl = CCCCCCCCCCCCCCCC(=O)*; αMeF = C[C@](N)(Cc1ccccc1)C(=O)O; PEG2 = NCCOCCOCCC(=O)O; Aib = CC(C)(N)C(=O)O

human GLP-1 receptor (hGLP-1R), sequence (P43220 24-463): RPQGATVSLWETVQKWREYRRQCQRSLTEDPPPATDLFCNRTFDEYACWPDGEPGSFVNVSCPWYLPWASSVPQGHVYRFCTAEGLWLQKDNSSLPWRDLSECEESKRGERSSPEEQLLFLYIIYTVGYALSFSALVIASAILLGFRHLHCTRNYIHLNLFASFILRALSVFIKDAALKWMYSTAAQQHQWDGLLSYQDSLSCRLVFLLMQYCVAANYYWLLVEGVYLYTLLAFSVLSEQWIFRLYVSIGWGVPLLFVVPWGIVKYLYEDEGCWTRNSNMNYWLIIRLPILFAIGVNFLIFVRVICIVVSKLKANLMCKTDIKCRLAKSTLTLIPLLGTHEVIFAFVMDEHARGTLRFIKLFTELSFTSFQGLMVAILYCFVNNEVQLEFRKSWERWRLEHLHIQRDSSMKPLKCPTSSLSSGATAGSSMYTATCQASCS
human glucagon receptor (hGCGR), sequence (P47871 26-477): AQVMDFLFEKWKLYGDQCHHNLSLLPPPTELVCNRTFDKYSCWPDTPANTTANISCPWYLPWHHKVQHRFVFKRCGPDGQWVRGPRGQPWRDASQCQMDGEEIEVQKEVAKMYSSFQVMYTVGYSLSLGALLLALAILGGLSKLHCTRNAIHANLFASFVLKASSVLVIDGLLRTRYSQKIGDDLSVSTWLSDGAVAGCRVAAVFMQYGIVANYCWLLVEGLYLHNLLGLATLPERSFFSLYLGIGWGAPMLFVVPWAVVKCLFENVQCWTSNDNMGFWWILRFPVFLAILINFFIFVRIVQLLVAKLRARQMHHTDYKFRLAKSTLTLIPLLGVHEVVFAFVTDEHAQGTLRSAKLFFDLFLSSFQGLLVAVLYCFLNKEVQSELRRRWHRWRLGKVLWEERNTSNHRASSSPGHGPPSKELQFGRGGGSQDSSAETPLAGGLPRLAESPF

As to `CCCCCCCCCCCCCCCCCC(=O)N[C@@H](CCC(=O)N[C@@H](CCC(=O)NCCOCCOCCC(=O)NCCOCCOCCC(=O)NCCCC[C@H](NC(=O)[C@H](CO)NC(=O)[C@H](CC(=O)O)NC(=O)[C@H](CC(C)C)NC(=O)C(C)(C)NC(=O)[C@H](CCCCN)NC(=O)[C@H](CO)NC(=O)[C@@H](NC(=O)[C@H](CC(=O)O)NC(=O)[C@H](CO)NC(=O)[C@@H](NC(=O)[C@](C)(Cc1ccccc1)NC(=O)[C@H](CO)NC(=O)CNC(=O)[C@H](CCC(N)=O)NC(=O)[C@H](CO)NC(=O)[C@@H](N)Cc1c[nH]cn1)[C@@H](C)O)C(C)C)C(=O)N[C@@H](C)C(=O)N[C@@H](C)C(=O)N[C@@H](CCC(N)=O)C(=O)N[C@@H](CC(=O)O)C(=O)N[C@@](C)(Cc1ccccc1)C(=O)N[C@H](C(=O)N[C@@H](CCC(N)=O)C(=O)NC(C)(C)C(=O)N[C@@H](CC(C)C)C(=O)N[C@@H](CO)C(=O)N[C@@H](CCC(=O)O)C(N)=O)C(C)C)C(=O)O)C(=O)O` [Peptide 94] (H-HSQGS[αMeF]TSDVSK[Aib]LDSK([PEG2-PEG2-γGlu-γGlu-Stearoyl])AAQD[αMeF]VQ[Aib]LSE-NH2; N-terminus assumed), in assay [1], the “% Relative Potency Ratio” value is reported as 20.7. In addition, the EC50 in assay [2] was found to be 0.0054 nM.

As to `CCCCCCCCCCCCCCCCCC(=O)N[C@@H](CCC(=O)N[C@@H](CCC(=O)NCCOCCOCCC(=O)NCCOCCOCCC(=O)NCCCC[C@H](NC(=O)[C@H](CO)NC(=O)[C@H](CC(=O)O)NC(=O)[C@H](CC(C)C)NC(=O)C(C)(C)NC(=O)[C@H](CCCCN)NC(=O)[C@H](CO)NC(=O)[C@@H](NC(=O)[C@H](CC(=O)O)NC(=O)[C@H](CO)NC(=O)[C@@H](NC(=O)[C@](C)(Cc1ccccc1)NC(=O)[C@H](CO)NC(=O)CNC(=O)[C@H](CCC(N)=O)NC(=O)[C@H](CO)NC(=O)[C@@H](N)Cc1c[nH]cn1)[C@@H](C)O)C(C)C)C(=O)N[C@@H](C)C(=O)N[C@@H](C)C(=O)N[C@@H](CCC(N)=O)C(=O)N[C@@H](CC(=O)O)C(=O)N[C@@](C)(Cc1ccccc1)C(=O)N[C@H](C(=O)N[C@@H](CCC(N)=O)C(=O)NC(C)(C)C(=O)N[C@@H](CC(C)C)C(=O)N[C@@H](C)C(=O)N[C@@H](CC(N)=O)C(=O)N[C@H](C(N)=O)[C@@H](C)O)C(C)C)C(=O)O)C(=O)O` [Peptide 95] (H-HSQGS[αMeF]TSDVSK[Aib]LDSK([PEG2-PEG2-γGlu-γGlu-Stearoyl])AAQD[αMeF]VQ[Aib]LANT-NH2; N-terminus assumed), the “% Relative Potency Ratio” value in assay [1] stood at 40.6. The EC50 in assay [2] amounted to 0.0125 nM.

With `CCCCCCCCCCCCCCCCCC(=O)N[C@@H](CCC(=O)N[C@@H](CCC(=O)NCCOCCOCCC(=O)NCCOCCOCCC(=O)NCCCC[C@H](NC(=O)[C@H](CO)NC(=O)[C@H](CC(=O)O)NC(=O)[C@H](CC(C)C)NC(=O)C(C)(C)NC(=O)[C@H](CCCCN)NC(=O)[C@H](CO)NC(=O)[C@@H](NC(=O)[C@H](CC(=O)O)NC(=O)[C@H](CO)NC(=O)[C@@H](NC(=O)[C@](C)(Cc1ccccc1)NC(=O)[C@H](CO)NC(=O)CNC(=O)[C@H](CCC(N)=O)NC(=O)[C@H](CO)NC(=O)[C@@H](N)Cc1c[nH]cn1)[C@@H](C)O)C(C)C)C(=O)N[C@@H](C)C(=O)N[C@@H](C)C(=O)N[C@@H](CCC(N)=O)C(=O)N[C@@H](CC(=O)O)C(=O)N[C@@](C)(Cc1ccccc1)C(=O)N[C@H](C(=O)N[C@@H](CCC(N)=O)C(=O)NC(C)(C)C(=O)N[C@H](C(=O)N[C@H](C(=O)N[C@@H](CCC(=O)O)C(N)=O)[C@@H](C)CC)[C@@H](C)CC)C(C)C)C(=O)O)C(=O)O` [Peptide 98] (H-HSQGS[αMeF]TSDVSK[Aib]LDSK([PEG2-PEG2-γGlu-γGlu-Stearoyl])AAQD[αMeF]VQ[Aib]IIE-NH2; N-terminus assumed), in assay [1], the EC50 is 0.00244 nM and the “% Relative Potency Ratio” value is 43.8. The EC50 in assay [2] worked out at 0.0541 nM.

In the case of `CCCCCCCCCCCCCCCC(=O)N[C@@H](CCC(=O)N[C@@H](CCC(=O)NCCOCCOCCC(=O)NCCOCCOCCC(=O)NCCCC[C@H](NC(=O)[C@H](CO)NC(=O)[C@H](CC(=O)O)NC(=O)[C@H](CC(C)C)NC(=O)C(C)(C)NC(=O)[C@H](CCCCN)NC(=O)[C@H](CO)NC(=O)[C@@H](NC(=O)[C@H](CC(=O)O)NC(=O)[C@H](CO)NC(=O)[C@@H](NC(=O)[C@](C)(Cc1ccccc1)NC(=O)[C@H](CO)NC(=O)CNC(=O)[C@H](CCC(N)=O)NC(=O)[C@H](CO)NC(=O)[C@@H](N)Cc1c[nH]cn1)[C@@H](C)O)C(C)C)C(=O)N[C@@H](C)C(=O)N[C@@H](C)C(=O)N[C@@H](CCC(N)=O)C(=O)N[C@@H](CC(=O)O)C(=O)N[C@@](C)(Cc1ccccc1)C(=O)N[C@H](C(=O)N[C@@H](CCC(N)=O)C(=O)NC(C)(C)C(=O)N[C@H](C(=O)N[C@@H](C)C(=O)N[C@@H](CC(N)=O)C(N)=O)[C@@H](C)CC)C(C)C)C(=O)O)C(=O)O` [Peptide 99] (H-HSQGS[αMeF]TSDVSK[Aib]LDSK([PEG2-PEG2-γGlu-γGlu-Palmitoyl])AAQD[αMeF]VQ[Aib]IAN-NH2; N-terminus assumed), the results for the EC50 in assay [1] and in assay [2] were 0.00221 nM and 0.0332 nM, respectively. Also, the “% Relative Potency Ratio” value in assay [1] is reported as 29.7.

`CCCCCCCCCCCCCCCCCC(=O)N[C@@H](CCC(=O)N[C@@H](CCC(=O)NCCOCCOCCC(=O)NCCOCCOCCC(=O)NCCCC[C@H](NC(=O)[C@H](CO)NC(=O)[C@H](CC(=O)O)NC(=O)[C@H](CC(C)C)NC(=O)C(C)(C)NC(=O)[C@H](CCCCN)NC(=O)[C@H](CO)NC(=O)[C@@H](NC(=O)[C@H](CC(=O)O)NC(=O)[C@H](CO)NC(=O)[C@@H](NC(=O)[C@](C)(Cc1ccccc1)NC(=O)[C@H](CO)NC(=O)CNC(=O)[C@H](CCC(N)=O)NC(=O)C(C)(C)NC(=O)[C@@H](N)Cc1c[nH]cn1)[C@@H](C)O)C(C)C)C(=O)N[C@@H](C)C(=O)N[C@@H](C)C(=O)N[C@@H](CCC(N)=O)C(=O)N[C@@H](CC(=O)O)C(=O)N[C@@](C)(Cc1ccccc1)C(=O)N[C@H](C(=O)N[C@@H](CCC(N)=O)C(=O)NC(C)(C)C(=O)N[C@H](C(=O)N[C@@H](C)C(=O)N[C@@H](CC(N)=O)C(N)=O)[C@@H](C)CC)C(C)C)C(=O)O)C(=O)O` [Peptide 100] (H-H[Aib]QGS[αMeF]TSDVSK[Aib]LDSK([PEG2-PEG2-γGlu-γGlu-Stearoyl])AAQD[αMeF]VQ[Aib]IAN-NH2; N-terminus assumed): the “% Relative Potency Ratio” value in assay [1] came out at 310.3. The EC50 in assay [2] worked out at 0.0405 nM.

Consider `CCCCCCCCCCCCCCCCCC(=O)N[C@@H](CCC(=O)N[C@@H](CCC(=O)NCCOCCOCCC(=O)NCCOCCOCCC(=O)NCCCC[C@H](NC(=O)[C@H](CO)NC(=O)[C@H](CC(=O)O)NC(=O)[C@H](CC(C)C)NC(=O)C(C)(C)NC(=O)[C@H](CCCCN)NC(=O)[C@H](CO)NC(=O)[C@@H](NC(=O)[C@H](CC(=O)O)NC(=O)[C@H](CO)NC(=O)[C@@H](NC(=O)[C@](C)(Cc1ccccc1)NC(=O)[C@H](CO)NC(=O)CNC(=O)[C@H](CCC(N)=O)NC(=O)C(C)(C)NC(=O)[C@@H](N)Cc1c[nH]cn1)[C@@H](C)O)C(C)C)C(=O)N[C@@H](C)C(=O)N[C@@H](C)C(=O)N[C@@H](CCC(N)=O)C(=O)N[C@@H](CC(=O)O)C(=O)N[C@@](C)(Cc1ccccc1)C(=O)N[C@H](C(=O)N[C@@H](CCC(N)=O)C(=O)N[C@@H](Cc1c[nH]c2ccccc12)C(=O)N[C@H](C(=O)N[C@@H](C)C(=O)N[C@@H](CC(N)=O)C(N)=O)[C@@H](C)CC)C(C)C)C(=O)O)C(=O)O` [Peptide 103] (H-H[Aib]QGS[αMeF]TSDVSK[Aib]LDSK([PEG2-PEG2-γGlu-γGlu-Stearoyl])AAQD[αMeF]VQWIAN-NH2; N-terminus assumed), for which the “% Relative Potency Ratio” value in assay [1] stood at 220.8. For the same compound, in assay [2], the EC50 was determined as 0.0594 nM.

Turning to `CCCCCCCCCCCCCCCCCC(=O)N[C@@H](CCC(=O)N[C@@H](CCC(=O)NCCOCCOCCC(=O)NCCOCCOCCC(=O)NCCCC[C@H](NC(=O)[C@H](CO)NC(=O)[C@H](CC(=O)O)NC(=O)[C@H](CC(C)C)NC(=O)C(C)(C)NC(=O)[C@H](CCCCN)NC(=O)[C@H](CO)NC(=O)[C@@H](NC(=O)[C@H](CC(=O)O)NC(=O)[C@H](CO)NC(=O)[C@@H](NC(=O)[C@](C)(Cc1ccccc1)NC(=O)[C@H](CO)NC(=O)CNC(=O)[C@H](CCC(N)=O)NC(=O)[C@@H](NC(=O)[C@@H](N)Cc1c[nH]cn1)[C@@H](C)O)[C@@H](C)O)C(C)C)C(=O)N[C@@H](C)C(=O)N[C@@H](C)C(=O)N[C@@H](CCC(N)=O)C(=O)N[C@@H](CC(=O)O)C(=O)N[C@@](C)(Cc1ccccc1)C(=O)N[C@H](C(=O)N[C@@H](CCC(N)=O)C(=O)NC(C)(C)C(=O)N[C@H](C(=O)N[C@@H](C)C(=O)N[C@@H](CC(N)=O)C(N)=O)[C@@H](C)CC)C(C)C)C(=O)O)C(=O)O` [Peptide 104] (H-HTQGS[αMeF]TSDVSK[Aib]LDSK([PEG2-PEG2-γGlu-γGlu-Stearoyl])AAQD[αMeF]VQ[Aib]IAN-NH2; N-terminus assumed), the concentration giving a half-maximal response (EC50) in assay [1] is 0.247 nM; in assay [2] it was 0.0456 nM. Further, the “% Relative Potency Ratio” value in assay [1] was 0.4.

With `CCCCCCCCCCCCCCCC(=O)N[C@@H](CCC(=O)N[C@@H](CCC(=O)NCCOCCOCCC(=O)NCCOCCOCCC(=O)NCCCC[C@H](NC(=O)[C@H](CO)NC(=O)[C@H](CC(=O)O)NC(=O)[C@H](CC(C)C)NC(=O)C(C)(C)NC(=O)[C@H](CCCCN)NC(=O)[C@H](CO)NC(=O)[C@@H](NC(=O)[C@H](CC(=O)O)NC(=O)[C@H](CO)NC(=O)[C@@H](NC(=O)[C@](C)(Cc1ccccc1)NC(=O)[C@H](CO)NC(=O)CNC(=O)[C@H](CCC(N)=O)NC(=O)[C@H](CO)NC(=O)[C@@H](N)Cc1c[nH]cn1)[C@@H](C)O)C(C)C)C(=O)N[C@@H](CCC(N)=O)C(=O)N[C@@H](C)C(=O)N[C@@H](CCC(N)=O)C(=O)N[C@@H](CC(=O)O)C(=O)N[C@@](C)(Cc1ccccc1)C(=O)N[C@H](C(=O)N[C@@H](CCC(N)=O)C(=O)NC(C)(C)C(=O)N[C@H](C(=O)N[C@@H](C)C(=O)N[C@@H](CC(N)=O)C(N)=O)[C@@H](C)CC)C(C)C)C(=O)O)C(=O)O` [Peptide 105] (H-HSQGS[αMeF]TSDVSK[Aib]LDSK([PEG2-PEG2-γGlu-γGlu-Palmitoyl])QAQD[αMeF]VQ[Aib]IAN-NH2), in assay [1], the 50% effective concentration (EC50) turned out to be 0.0648 nM and the “% Relative Potency Ratio” value is 3.7. Moreover, in assay [2], the 50% effective concentration (EC50) was found to be 0.121 nM.

For orientation: EC50 means the concentration at which the effect is half-maximal.

The record behind these values is patent US20250353891A1 (MEDIMMUNE LIMITED, priority 2022, published 2025).
